Assays:
[1] = tested on: alloxan-induced diabetic mouse model; assay: Acute evaluation of in vivo oral hypoglycemic activity; conditions: diabetic mice, single oral dose 200 μg/kg body weight, mean ± SEM, n=6
Protocol: The sulfonylurea derivatives of oleanolic acid were screened for their oral hypoglycemic activity in vivo using the alloxan-induced diabetic mouse model. In an acute evaluation, the percentage change in blood glucose levels in diabetic mice after oral administration of the test compounds (200 μg/kg body weight) was measured and summarized in Table 1 and FIG. 2.
Briefly, animals were fasted overnight and the fasting blood glucose (BG) (0 hour) levels were calculated. Test and control compounds were administered at a fixed dose of 200 μg/kg body weight orally (homogenized suspension in 0.5% carboxymethyl cellulose (CMC) and permissible amounts of Tween 80). Animals in the vehicle-treated group were given an equal volume of 0.5% CMC and control group animals were untreated. Blood samples were removed from all animals at 2, 4, 6 and 24 hours and the percentage change in BG was calculated. The data were analyzed by one-way ANOVA followed by Dunnett's test. The results were expressed as mean±standard error of mean for each group, n=6 for each group, and p<0.01 or p<0.05 was considered as statistically significant.

[2] = tested on: alloxan-induced diabetic mouse model; assay: Sub-acute evaluation of in vivo oral hypoglycemic activity (21 days dosing, 7 days rest); conditions: diabetic mice, mean ± SEM, n=6; for % change in BG, 7 days rest period: day 28: 7 days rest after 21 days oral 200 μg/kg body weight; for % change in BG, 7 day / % change in BG, 14 day / % change in BG, 21 day: oral 200 μg/kg body weight daily; for % change in BG, 7 day: day 7; for % change in BG, 14 day: day 14; for % change in BG, 21 day: day 21
Protocol: The sulfonylurea derivative compounds were also screened for their oral hypoglycemic activity after several days of administration using the alloxan-induced diabetic mouse model, and percentage changes in blood glucose levels after oral administration ([…] body weight) were recorded (Table 2).
Briefly, animals were fasted overnight, and the fasting BG (0 day) levels were calculated. Test and control compounds were administered orally for 21 days at a fixed time and a fixed dose of 200 μg/kg body weight (homogenized suspension in 0.5% CMC and permissible amounts of Tween 80). After 21 days, treatment was stopped and animals were rested for a period of 7 days. Animals in the vehicle-treated group were then given an equal amount of 0.5% CMC and those of control group were untreated. Blood samples were removed from all animals throughout the course of the study at 7, 14, 21 and 28 days, and percentage change in BG was calculated. The data were analyzed by one-way ANOVA, followed by Dunnett's test. The results were expressed as mean±standard error of mean for each group, n=6 for each group, and p<0.01 or p<0.05 was considered as statistically significant (Table 2).

| Structure (SMILES) | % change in BG, 2 h [1] [%] | % change in BG, 4 h [1] [%] | % change in BG, 6 h [1] [%] | % change in BG, 24 h [1] [%] | % change in BG, 7 days rest period [2] [%] | % change in BG, 7 day [2] [%] | % change in BG, 14 day [2] [%] | % change in BG, 21 day [2] [%] |
| --- | --- | --- | --- | --- | --- | --- | --- | --- |
| COc1ccc(Cl)cc1C(=O)NCCc1ccc(S(=O)(=O)NC(=O)NC2CCCCC2)cc1 [Glibenclamide, glibenclamide] | −35.55 ± 1.55 | −26.54 ± 1.32 | −15.58 ± 0.88 | −11.24 ± 0.11 | −28.48 ± 0.58 | −16.23 ± 0.32 | −22.57 ± 0.54 | −30.87 ± 0.58 |
| CC1(C)CC[C@]2(C(=O)NCCc3ccc(S(=O)(=O)NC(=O)NC4CCCCC4)cc3)CC[C@]3(C)C(=CC[C@@H]4[C@@]5(C)CCC(=O)C(C)(C)[C@@H]5CC[C@]43C)[C@@H]2C1 [Compound 3a, N1-[p-(4-Oxo-18β-olean-12-ene-28-amido-ethyl)-benzenesulfonyl]-N2-cyclohexyl-urea] | −72.76 ± 0.78 | −77.76 ± 0.90 | −83.56 ± 0.83 | −74.44 ± 0.74 | −81.78 ± 0.90 | −76.87 ± 0.89 | −80.09 ± 0.90 | −87.65 ± 0.95 |
| CC1CCC(NC(=O)NS(=O)(=O)c2ccc(CCNC(=O)C34CCC(C)(C)CC3C3=CCC5C6(C)CCC(=O)C(C)(C)C6CCC5(C)C3(C)CC4)cc2)CC1 (stereo not drawn) [Compound 3b, N1-[4-(3-Oxo-18β-olean-12-ene-28-amido-ethyl)-benzenesulfonyl]-N2-(4-methylcyclohexyl)-urea] | −75.56 ± 0.86 | −80.97 ± 0.92 | −88.89 ± 0.98 | −76.76 ± 0.89 | −82.12 ± 1.17 | −80.80 ± 0.80 | −84.98 ± 1.16 | −88.89 ± 1.12 |
| CC1(C)CC[C@]2(C(=O)O)CC[C@]3(C)C(=CC[C@@H]4[C@@]5(C)CC[C@H](O)C(C)(C)[C@@H]5CC[C@]43C)[C@@H]2C1 [Oleanolic acid, oleanolic acid] | −40.79 ± 1.20 | −48.66 ± 1.31 | −52.17 ± 1.31 | −51.01 ± 1.11 | −30.32 ± 0.83 | −10.56 ± 0.80 | −20.35 ± 0.72 | −37.68 ± 0.78 |
